Experimental data reported in US8586538B2, “Method of treating a patient suffering from a bleeding disorder comprising administering an antibody against the A3-C1 of FVIII” (Stichting Sanquin Bloedvoorziening, priority 2002, dated 2013).

System: LRP cluster II
Assay: SPR binding of LRP cluster II to immobilized light chains (FVIII, FVa, FVIII/FV chimera)
Conditions: LRP cluster II 100 nM; immobilized light chain
Procedure: FIG. 3. Binding of LRP cluster II to immobilized FVa light chain. […] Response is indicated as Resonance Units (RU) and is corrected for nonspecific binding, which was less than 5% relative to coated channels.
FIG. 6. Binding of LRP cluster II to the FVIII/FV^1811-1818 light chain chimera. ScFv EL14 at a CM5 sensor chip (67 fmol/mm^2) was incubated with either the recombinant wild-type FVIII light chain or the recombinant FVIII/FV^1811-1818 chimera till a density of 20 fmol/mm^2, in 150 mM NaCl, 50 mM Tris (pH 7.4). […] Bound LRP cluster II is expressed as the amount associated after 2 min.
The kinetics of protein interactions was determined by surface plasmon resonance (SPR) analysis, employing a BIAcore™2000 biosensor system (Biacore AS, Uppsala, Sweden). […] Association of analyte was assessed in 150 mM NaCl, 2 mM CaCl2, 0.005% (v/v) Tween® 20, and 20 mM Hepes (pH 7.4) for 2 min, at a flow rate of 20 μl/min at 25° C. […] The association (kon) and dissociation (koff) rate constants were determined by using the BIAevaluation software 3.1 (Biacore AB, Uppsala, Sweden). […] Equilibrium dissociation constants (kd) were calculated from the ratio koff/kon. […]

Chain of LRP cluster II (Q07954 803-1182 limits assumed): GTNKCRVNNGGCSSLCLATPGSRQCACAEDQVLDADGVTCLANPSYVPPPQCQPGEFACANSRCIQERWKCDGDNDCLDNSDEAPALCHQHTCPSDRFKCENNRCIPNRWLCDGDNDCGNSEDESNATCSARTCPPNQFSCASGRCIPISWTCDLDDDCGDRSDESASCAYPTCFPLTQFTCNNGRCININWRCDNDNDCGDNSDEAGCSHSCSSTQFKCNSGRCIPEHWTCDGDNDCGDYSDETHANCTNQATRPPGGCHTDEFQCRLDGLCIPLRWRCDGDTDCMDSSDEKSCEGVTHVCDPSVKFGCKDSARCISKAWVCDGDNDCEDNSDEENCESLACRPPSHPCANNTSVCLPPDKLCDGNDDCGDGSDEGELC

Substance: FVa light chain: light chain of thrombin-activated human Factor V purified from plasma
- Binding to LRP cluster II: did not interact
